d = 2'-deoxy (DNA); m = 2'-O-methyl
Experiments:
[1] = biological target: human recombinant GHS-R1a (Homo sapiens, UniProt Q92847); details: cited from earlier work
rat pituitary cells = details: read-out: EC50, stimulates GH release; cited from earlier work
[2] = tested on: obese animals (high fat diet); test: Physiological effect of tabimorelin conjugated antisense oligonucleotides in a high-fat diet model of obesity; format: in vivo; details: 10 doses in 12 days of 30 μg intranasally
Method: Animals were fed a high fat diet (HFD) (TD.06414, 60% fat, Harlan) or a standard diet (Control diet: 2014, Harlan) for 12 weeks. Those obese animals that weighed more than the mean body weight of the lean animals plus 2 times the lean standard deviation were selected:
Obese BW>lean BW mean+2×lean SD
The day of administration animals were fasted for 8 hours. Under isofluorane anesthesia, 10 doses in 12 days of 30 μg of the following molecules were intranasally administered (5 μl per nostril): • Vehicle (VH) (1×PBS) • TAB-NS-ASO4 (NS)(Non-sense sequence directed with tabimorelin) • TAB-SOCS3-ASO4 (SOCS3)(antisense sequence against socs3 mRNA directed with tabimorelin) • TAB-PTP1B-ASO4 (PTP1B)(antisense sequence against ptp1b mRNA directed with tabimorelin
Body weight and food intake were daily monitored. 48 hours after the last administration animals were sacrificed and tissues collected for further analysis.

Sequence of human recombinant GHS-R1a (Q92847 whole entry): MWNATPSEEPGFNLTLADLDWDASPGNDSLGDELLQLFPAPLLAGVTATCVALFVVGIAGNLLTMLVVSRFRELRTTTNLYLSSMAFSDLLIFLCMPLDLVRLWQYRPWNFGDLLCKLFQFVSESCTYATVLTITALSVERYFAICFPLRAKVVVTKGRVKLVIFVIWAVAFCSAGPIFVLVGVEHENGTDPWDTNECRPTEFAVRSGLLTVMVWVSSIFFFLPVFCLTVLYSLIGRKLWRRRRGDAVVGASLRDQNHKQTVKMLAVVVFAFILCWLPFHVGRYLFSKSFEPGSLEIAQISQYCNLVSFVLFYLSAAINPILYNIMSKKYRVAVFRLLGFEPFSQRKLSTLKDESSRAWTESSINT

| Compound | Ki [1] [nM] | EC50 (rat pituitary cells) [nM] | Daily BW gain (mean of changes in daily body weight) [2] | Cumulative body weight (BW) gain ([2]; vs VH and NS) | Cumulative food intake (FI) ([2]; vs VH and NS) | Daily FI (mean of daily food ingestion) ([2]; vs VH and NS) |
| --- | --- | --- | --- | --- | --- | --- |
| CNC(=O)[C@@H](Cc1ccccc1)N(C)C(=O)[C@@H](Cc1ccc2ccccc2c1)N(C)C(=O)/C=C/CC(C)(C)N [Tabimorelin] | 50 | 2.7 | – | – | – | – |
| TAB-SOCS3-ASO4: antisense sequence against socs3 mRNA directed with tabimorelin; 20-mer with 10 DNA core and 2′-o-methyl flanks (antisense GUGGCGCTGGTCCGAGCTGT; sugars from the 5' end m5 d10 m5, backbone and methylation of C not given here; tabimorelin conjugate attached) | – | – | not being significantly different between groups, a decrease was observed | gained significantly less weight than control animals | significantly decreased | decreased |
